Results from patent US20210261512A1, “NOVEL COMPOUNDS” (INFLAZOME LIMITED, priority 2018, published 2021).

What was measured:
[1] = biological target: T1, NLRP3 (Homo sapiens, UniProt Q96P20); assay: Human whole blood IL1β release assay; type: cell-based; conditions: LPS 1 μg/ml, nigericin 10 μM, IL-1β AlphaLisa, 10 μM top dose (Example 2: top dose of 30 μM), read-out: HWB IC50
Procedure, shortened: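 Healthy-donor heparinised human whole blood with 1 μg/ml LPS, compound (8-point half-log dilution, 10 μM top dose unless stated; 0.1% DMSO vehicle) for 3 h at 37 °C, then nigericin 10 μM final for 1 h. Supernatant IL-1β by AlphaLISA; IC50 from 4-parameter variable-slope fit.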

[2] = PK, intravenous administration; type: in vivo; conditions: rat, plasma, male Sprague Dawley rats, dose about 1 mg/kg; for Vd: read-out: Vdss
Experimental: Pharmacokinetic parameters were determined in male Sprague Dawley rats (Vital River Laboratory Animal Technology Co Ltd, Beijing, China, 6-9 weeks old). Animals were maintained under a 12 h light/dark cycle. Animals had free access to food and water, except that orally dosed animals were food deprived overnight prior to the study.
For intravenous administration, compounds were formulated as a solution (in DMSO:water [10:90] or in DMSO:PBS [10:90]) in 2 mL/kg dosing volume and administered via tail vein. For oral administration, compounds were formulated as a solution (in 0.5% methylcellulose in water) in […] dosing volume and administered orally.
Serial blood samples (about 200 μL) were taken from each animal at each of 8 time-points post dose ([…], 0.25, 0.5, 1, 2, 4, 8 and 24 h). Samples were held on ice for no longer than 30 minutes before centrifugation (5,696 rpm (3,000 g) for 15 minutes) for plasma generation. Plasma was frozen on dry ice prior to bioanalysis. PK parameters were generated from LC-MS/MS data using Phoenix WinNonlin 6.3 software.

[3] = biological target: T1, NLRP3; assay: THP-1 cells pyroptosis assay; type: cell-based; design: Seed THP-1 cells (25,000 cells/well) containing 1.0 μg/ml LPS; host or cells: THP-1; conditions: LPS 1.0 μg/ml, nigericin 5 μM, resazurin readout, 10 μM top dose (Example 2: top dose of 30 μM)
Procedure, shortened: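 Pyroptosis induced by 5 μM nigericin (1 h) in LPS-primed (1 μg/ml) THP-1 cells, 25,000/well in serum-free RPMI, after 3 h compound pre-treatment (8 points, 10 μM top unless stated). Surviving cells measured with 100 μM resazurin, Ex 560/Em 590; IC50 via variable-slope 4-parameter regression.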

T1 sequence (Q96P20 whole entry): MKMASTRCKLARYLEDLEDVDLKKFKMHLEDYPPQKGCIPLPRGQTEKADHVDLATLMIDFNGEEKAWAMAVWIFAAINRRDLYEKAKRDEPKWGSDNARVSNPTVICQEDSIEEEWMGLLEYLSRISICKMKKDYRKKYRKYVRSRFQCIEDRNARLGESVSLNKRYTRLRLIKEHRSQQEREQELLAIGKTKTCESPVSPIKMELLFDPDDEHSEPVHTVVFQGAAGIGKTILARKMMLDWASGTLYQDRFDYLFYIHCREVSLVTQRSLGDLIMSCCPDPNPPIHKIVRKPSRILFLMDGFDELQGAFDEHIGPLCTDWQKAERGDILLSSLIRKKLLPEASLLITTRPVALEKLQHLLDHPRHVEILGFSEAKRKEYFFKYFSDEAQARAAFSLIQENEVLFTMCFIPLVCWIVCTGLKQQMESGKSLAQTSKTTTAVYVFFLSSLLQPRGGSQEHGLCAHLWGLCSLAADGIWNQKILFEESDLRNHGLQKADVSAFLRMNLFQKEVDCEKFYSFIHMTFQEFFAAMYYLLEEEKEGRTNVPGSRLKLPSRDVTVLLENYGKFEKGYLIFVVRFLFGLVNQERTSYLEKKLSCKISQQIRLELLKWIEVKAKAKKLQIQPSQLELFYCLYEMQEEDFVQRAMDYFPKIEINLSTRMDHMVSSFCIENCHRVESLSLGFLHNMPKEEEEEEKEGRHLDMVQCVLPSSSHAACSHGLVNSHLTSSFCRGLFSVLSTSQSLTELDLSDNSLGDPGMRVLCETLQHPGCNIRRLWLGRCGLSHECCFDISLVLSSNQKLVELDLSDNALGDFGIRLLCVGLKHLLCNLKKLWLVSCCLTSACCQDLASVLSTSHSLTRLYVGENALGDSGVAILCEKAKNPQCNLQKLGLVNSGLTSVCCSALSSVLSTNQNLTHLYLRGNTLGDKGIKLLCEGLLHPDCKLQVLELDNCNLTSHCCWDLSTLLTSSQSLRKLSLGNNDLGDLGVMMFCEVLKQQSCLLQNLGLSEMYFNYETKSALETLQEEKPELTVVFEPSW

Row | SMILES | IC50 [1] [nM] | AUC [2] [ng·h/mL] | clearance [2] [mL/min/kg] | half-life [2] [h] | Vd [2] [L/kg] | IC50 [3] [nM]
1 | COc1cc(-c2ccc3c(c2Nc2nnc(S(=O)(=O)N4CC[C@H](C(C)(C)O)C4)[nH]2)CCC3)ccn1 [Example 231, (S)-2-(1-((5-((5-(2-methoxypyridin-4-yl)-2,3-dihydro-1H-inden-4-yl)amino)-4H-1,2,4-triazol-3-yl)sulfonyl)pyrrolidin-3-yl)propan-2-ol] | ≤ 1000 | 459 | 36.3 | 0.326 | 0.494 | ≤ 500
2 | CC(C)N1CCC2(C1)CN(S(=O)(=O)c1nnc(Nc3c4c(cc5c3CCC5)CCC4)[nH]1)C2 [Example 264, N-(1,2,3,5,6,7-hexahydro-s-indacen-4-yl)-5-((6-isopropyl-2,6-diazaspiro[3.4]octan-2-yl)sulfonyl)-4H-1,2,4-triazol-3-amine] | ≤ 500 | 280 | 59.6 | 1.89 | 5.78 | ≤ 500
3 | CN1CCC2(CCN(S(=O)(=O)c3nnc(Nc4c5c(cc6c4CCC6)CCC5)[nH]3)C2)C1 (stereo not drawn) [Example 277, N-(1,2,3,5,6,7-hexahydro-s-indacen-4-yl)-5-((7-methyl-2,7-diazaspiro[4.4]nonan-2-yl)sulfonyl)-4H-1,2,4-triazol-3-amine] | ≤ 1000 |  |  |  |  | ≤ 500
4 | COc1cc(-c2ccc3c(c2Nc2nnc(S(=O)(=O)N4CCC5(CCN5C)CC4)[nH]2)CCC3)ccn1 [Example 204, N-(5-(2-methoxypyridin-4-yl)-2,3-dihydro-1H-inden-4-yl)-5-((1-methyl-1,7-diazaspiro[3.5]nonan-7-yl)sulfonyl)-4H-1,2,4-triazol-3-amine] | ≤ 1000 |  |  |  |  | ≤ 500
5 | COc1cc(-c2ccc3c(c2Nc2nnc(S(=O)(=O)c4ccn(C)n4)[nH]2)CCC3)ccn1 [Example 339, N-(5-(2-methoxypyridin-4-yl)-2,3-dihydro-1H-inden-4-yl)-5-((1-methyl-1H-pyrazol-3-yl)sulfonyl)-4H-1,2,4-triazol-3-amine] | ≤ 5000 |  |  |  |  | ≤ 1000
6 | [2H]C([2H])([2H])Oc1cc(-c2ccc3c(c2Nc2nnc(S(=O)(=O)N4CCC(N(C)C)CC4)[nH]2)CCC3)ccn1 [Example 227, 1-((5-((5-(2-(methoxy-d3)pyridin-4-yl)-2,3-dihydro-1H-inden-yl)amino)-4H-1,2,4-triazol-3-yl)sulfonyl)-N,N-dimethylpiperidin-4-amine] | ≤ 500 |  |  |  |  | ≤ 500
7 | CN(C)C1CCN(S(=O)(=O)c2nnc(Nc3c(-c4ccnc(C5CC5)c4)ccc4c3CCC4)[nH]2)CC1 [Example 199, 1-((5-((5-(2-cyclopropylpyridin-4-yl)-2,3-dihydro-1H-inden-4-yl)amino)-4H-1,2,4-triazol-3-yl)sulfonyl)-N,N-dimethylpiperidin-4-amine] | ≤ 5000 |  |  |  |  | ≤ 500
8 | [2H]C([2H])([2H])Oc1cc(-c2ccc3c(c2Nc2nnc(S(=O)(=O)N4CC[C@H](C(C)(C)O)C4)[nH]2)CCC3)ccn1 [Example 344, (S)-2-(1-((5-((5-(2-(methoxy-d3)pyridin-4-yl)-2,3-dihydro-1H-inden-4-yl)amino)-4H-1,2,4-triazol-3-yl)sulfonyl)pyrrolidin-3-yl)propan-2-ol] | ≤ 5000 |  |  |  |  | ≤ 500
9 | CC(C)c1cc(F)cc(-c2ccncc2)c1Oc1nnc(S(=O)(=O)N2CCC(CN(C)C)C2)[nH]1 (stereo not drawn) [Example 152, 1-(1-((5-(4-fluoro-2-isopropyl-6-(pyridin-4-yl)phenoxy)-4H-1,2,4-triazol-3-yl)sulfonyl)pyrrolidin-3-yl)-N,N-dimethylmethanamine] | ≤ 5000 |  |  |  |  | ≤ 5000
10 | CN1CCCC(CNS(=O)(=O)c2nnc(Nc3c4c(cc5c3CCC5)CCC4)[nH]2)C1 (stereo not drawn) [Example 128, 5-((1,2,3,5,6,7-hexahydro-s-indacen-4-yl)amino)-N-((1-methylpiperidin-3-yl)methyl)-4H-1,2,4-triazole-3-sulfonamide] | ≤ 10000 |  |  |  |  | ≤ 1000

Next, values leading:

Row | IC50 [1] [nM] | AUC [2] [ng·h/mL] | clearance [2] [mL/min/kg] | half-life [2] [h] | Vd [2] [L/kg] | IC50 [3] [nM] | SMILES
11 | ≤ 10000 |  |  |  |  | ≤ 5000 | CC(C)n1ccc(S(=O)(=O)c2nnc(Nc3c(-c4ccncc4)cc(F)c4c3CCC4)[nH]2)n1 [Example 36, N-(7-fluoro-5-(pyridin-4-yl)-2,3-dihydro-1H-inden-4-yl)-5-((1-isopropyl-1H-pyrazol-3-yl)sulfonyl)-4H-1,2,4-triazol-3-amine]
12 | ≤ 5000 |  |  |  |  | ≤ 500 | CN1CCCC12CCN(S(=O)(=O)c1nnc(Nc3c(-c4ccnc(OC(F)F)c4)ccc4c3CCO4)[nH]1)CC2 [Example 210, N-(5-(2-(difluoromethoxy)pyridin-4-yl)-2,3-dihydrobenzofuran-4-yl)-5-((1-methyl-1,8-diazaspiro[4.5]decan-8-yl)sulfonyl)-4H-1,2,4-triazol-3-amine]
13 | ≤ 500 |  |  |  |  | ≤ 500 | [2H]C([2H])([2H])Oc1cc(-c2ccc3c(c2Nc2nnc(S(=O)(=O)N4CC5(CCN(C)C5)C4)[nH]2)CCC3)ccn1 [Example 196, N-(5-(2-(methoxy-d)pyridin-4-yl)-2,3-dihydro-1H-inden-4-yl)-5-((6-methyl-2,6-diazaspiro[3.4]octan-2-yl)sulfonyl)-4H-1,2,4-triazol-3-amine]
14 | ≤ 5000 |  |  |  |  | ≤ 5000 | CN(C)C1CN(S(=O)(=O)c2nnc(Nc3c4c(cc5c3CCC5)CCC4)[nH]2)C1 [Example 91, 5-((3-(dimethylamino)azetidin-1-yl)sulfonyl)-N-(1,2,3,5,6,7-hexahydro-s-indacen-4-yl)-4H-1,2,4-triazol-3-amine]
15 | ≤ 30000 |  |  |  |  | ≤ 10000 | O=S(=O)(Cc1ccccc1)c1nnc(Nc2c3c(cc4c2CCC4)CCC3)[nH]1 [Example 2, 5-(benzylsulfonyl)-N-(1,2,3,5,6,7-hexahydro-s-indacen-4-yl)-4H-1,2,4-triazol-3-amine]
16 | ≤ 1000 |  |  |  |  | ≤ 500 | COc1cc(-c2ccc3c(c2Nc2nnc(S(=O)(=O)N4CCC5(CCCN5C)CC4)[nH]2)CCC3)ccn1 [Example 258, N-(5-(2-methoxypyridin-4-yl)-2,3-dihydro-1H-inden-4-yl)-5-((1-methyl-1,8-diazaspiro[4.5]decan-8-yl)sulfonyl)-4H-1,2,4-triazol-3-amine]
17 | ≤ 5000 |  |  |  |  | ≤ 5000 | O=S(=O)(c1nnc(Nc2c3c(cc4c2CCC4)CCC3)[nH]1)N1CC2(CNC2)C1 [Example 150, 5-(2,6-Diazaspiro[33]heptan-2-ylsulfonyl)-N-(1,2,3,5,6,7-hexahydro-s-indacen-4-yl)-4H-1,2,4-triazol-3-amine]
18 | ≤ 5000 |  |  |  |  | ≤ 500 | COc1cc(-c2ccc3c(c2Nc2nnc(S(=O)(=O)c4cccc(CN(C)C)c4)[nH]2)CCC3)ccn1 [Example 329, 5-((3-((dimethylamino)methyl)-phenyl)sulfonyl)-N-(5-(2-methoxypyridin-4-yl)-2,3-dihydro-1H-inden-4-yl)-4H-1,2,4-triazol-3-amine]
19 | ≤ 5000 |  |  |  |  | ≤ 1000 | CC(C)N1CCN(S(=O)(=O)c2nnc(Nc3c4c(cc5c3CCC5)CCC4)[nH]2)CC1 [Example 117, N-(1,2,3,5,6,7-hexahydro-s-indacen-4-yl)-5-((4-isopropylpiperazin-1-yl)sulfonyl)-4H-1,2,4-triazol-3-amine]
20 | ≤ 500 |  |  |  |  | ≤ 500 | [2H]C([2H])([2H])Oc1cc(-c2ccc3c(c2Nc2nnc(S(=O)(=O)N4CCC(N(C)C)CC4)[nH]2)CCO3)ccn1 [Example 218, 1-((5-((5-(2-(methoxy-d)pyridin-4-yl)-2,3-dihydrobenzofuran-4-yl)amino)-4H-1,2,4-triazol-3-yl)sulfonyl)-N,N-dimethylpiperidin-4-amine]
21 | ≤ 500 |  |  |  |  | ≤ 500 | CN(C)CC1CN(S(=O)(=O)c2nnc(Nc3c4c(cc5c3CCC5)CCC4)[nH]2)C1 [Example 291, 5-((3-((dimethylamino)methyl)azetidin-1-yl)sulfonyl)-N-(1,2,3,5,6,7-hexahydro-s-indacen-4-yl)-4H-1,2,4-triazol-3-amine]
22 | ≤ 5000 |  |  |  |  | ≤ 1000 | CN(C)C1CCN(S(=O)(=O)c2nnc(Nc3c(-c4ccncc4)ccc4c3CCO4)[nH]2)CC1 [Example 220, N,N-dimethyl-1-((5-((5-(pyridin-4-yl)-2,3-dihydrobenzofuran-4-yl)amino)-4H-1,2,4-triazol-3-yl)sulfonyl)piperidin-4-amine]
23 | ≤ 1000 |  |  |  |  | ≤ 500 | CNC[C@H]1CCN(S(=O)(=O)c2nnc(Nc3c4c(cc5c3CCC5)CCC4)[nH]2)C1 [Example 288, (R)—N-(1,2,3,5,6,7-hexahydro-s-indacen-4-yl)-5-((3-((methylamino)methyl)pyrrolidin-1-yl)sulfonyl)-4H-1,2,4-triazol-3-amine]
